Measurements: patent US11708373B2, “5-alkylquinazoline derivative, method of preparing the same, and method of using the same” (Hefei University of Technology, priority 2020, dated 2023)

Test system: breast cancer cells (MCF)
Assay: MCF test of breast cancer cells
Type: cell-based
From the text: Therefore, the compounds of the present application are expected to be useful in the treatment of various cancers, such as cervical cancer.

COC(=O)C1=NC2(Nc3ccc(C)cc31)C(=O)Nc1ccc(C)cc12 (stereo not shown) [Compound II]
ED50, inhibitory activity in the MCF test of breast cancer cells: < 10.0 mg/L
